According to patent US20240024403A1, “Compositions and Methods for Managing Weight” (Unigen, Inc., priority 2012, published 2024):

Experiment: High fat diet induced obesity (DIO) mouse model
Format: in vivo, C57CL/6J mice
Conditions: for NSAH (sum): liver pathology; for Total Body Weight: DIO mice (Table 52); for Total Body Weight / Body Weight: in g (unit assumed)
Description: C57CL/6J mice aged 4-6 weeks (Korea Research Institute of Bioscience & Biotechnology, Ohchang, Korea) were housed in Polycarbonate cages (five mice per cage) in a room with a 12 hr:12 hr light-dark cycle and an ambient temperature of 24° C. All the mice were fed a commercial chow diet for 1 week after arrival in the animal facility. Mice were then divided into normal and obesity groups and fed with normal diet (ND) and high fat diets (HFD) respectively. The HFD group was divided into multiple treatment groups: a high fat diet vehicle group (HFD), an orlistat (purchased as OTC drug Alli®) positive control treatment group (ORI, 40 mg/kg of animal weight, 2 times/day) and optionally a sibutramine positive control treatment group (10 mg/kg, 1 time/day). The HFD contained 340 g of fat/kg of HFD (310 g lard plus 30 g soybean oil; Harlan Laboratories, USA). The HFD was formulated to provide 60% of the total energy generated by the diet from fat by replacing carbohydrate energy with lard and soybean oil, whereas the normal diet (ND) group was fed a diet providing only 18% of the total diet energy from fat(Harlan Laboratories, USA).
Body weight was measured once each week and feed intake was measured twice per week. At the end of the experimental period, following a 12 hr. fasting period, the animals were anesthetized with ether, and blood was drawn from the abdominal vein. Liver and kidney and adipose tissues (epididymal, retroperitoneal, perirenal adipose tissues) were removed from each animal, rinsed with physiological saline, and weighed. Serum concentrations of glucose, total cholesterol, triglycerides, and LDL-cholesterol were determined using automatic analyzer (INTEGRA 400, Roche, Germany). Statistical significance of test results was measured using the Student's t-test.

[1] = DIO mice blood biochemistry, SIB 10 mg/kg, ORI 40 mg/kg, Mutamba extract 32 (G1) 1000 mg/kg, mean
[2] = DIO mice blood biochemistry, SIB 10 mg/kg, ORI 40 mg/kg, Mutamba extract 33-2 G1 1000 mg/kg, mean
[3] = DIO mice liver pathology score, SIB 10 mg/kg, ORI 40 mg/kg, Mutamba extract 32 (G1) 1000 mg/kg, mean
[4] = DIO mice, SIB 10 mg/kg, ORI 40 mg/kg, Mutamba extract 32 (G1) 1000 mg/kg, mean
[5] = DIO mice, SIB 10 mg/kg, ORI 40 mg/kg, Mutamba extract 33-2 G1 1000 mg/kg, mean
[6] = DIO mice, combination (1:1) 2000 mg/kg twice a day, group mean
[7] = liver pathology score, mice fed a high fat diet, Mutamba fractions 250 mg/kg oral 2 times per day, mean
[8] = liver pathology score, mice fed a high fat diet, Mutamba fractions 250 mg/kg oral 2 times per day, mean (table printed twice)
[9] = mice fed a high fat diet, Mutamba fractions 250 mg/kg oral 2 times per day, mean
[10] = sibutramine 10 mg/kg, 1 time/day
[11] = sibutramine 10 mg/kg, 1 time/day, listed as Sibutramine
[12] = week 1, mice fed a high fat diet, Mutamba fractions 250 mg/kg oral 2 times per day, mean
[13] = week 2, mice fed a high fat diet, Mutamba fractions 250 mg/kg oral 2 times per day, mean
[14] = week 3, mice fed a high fat diet, Mutamba fractions 250 mg/kg oral 2 times per day, mean
[15] = week 4, mice fed a high fat diet, Mutamba fractions 250 mg/kg oral 2 times per day, mean
[16] = week 5, mice fed a high fat diet, Mutamba fractions 250 mg/kg oral 2 times per day, mean
[17] = week 6, mice fed a high fat diet, Mutamba fractions 250 mg/kg oral 2 times per day, mean
[18] = week 7, mice fed a high fat diet, Mutamba fractions 250 mg/kg oral 2 times per day, mean
[19] = week 8, mice fed a high fat diet, Mutamba fractions 250 mg/kg oral 2 times per day, mean

Work on CC(C)CC(N(C)C)C1(c2ccc(Cl)cc2)CCC1 (stereo not shown) [SIB, sibutramine] yielded an ALT [1] of 37.00 U/L, an AST [1] of 65.95 U/L and an HDL-C [1] of 68.73 mg/dL. It also gave an LDL-C [1] of 6.18 mg/dL, a T-chol [1] of 155.75 mg/dL and a TG [1] of 49.75 mg/dL. The LDL-C [2] was 5.26 mg/dL, the T-chol [2] was 158.60 mg/dL and the TG [2] was 46.60 mg/dL. For the same compound, the “Hepatocellular ballooning (0-2)” value [3] was 0.25, the “Lobular Inflammation (0-3)” value [3] was 0.50 and the “Steatosis (0-3)” value [3] was 0.50. The “NASH (sum)” value (DIO mice liver pathology, sum of scores, SIB 10 mg/kg, ORI 40 mg/kg, Mutamba extract 32 (G1) 1000 mg/kg, mean) was 1.25, the “Weight Gain 2-week” value (DIO mice, 2-week, Compositions 1, 2 1300 mg/kg/day, 3, 9 1700 mg/kg/day, orlistat 40 mg/kg 2 times/day, sibutramine 10 mg/kg 1 time/day) was −1.40 and the “Average Feed Intake 2-week” value (DIO mice, 2-week, doses as in Example 76) was 2.87. For the same compound, the “Food Efficiency Ratio (FER) 2 weeks” value (DIO mice, 2 weeks, Mean, Weight Gain (g/day)/Feed Intake (g/day)) was −0.099, the “Weight Gain 7-week” value (DIO mice, 7-week, Compositions 1, 2 1300 mg/kg/day, 3, 9 1700 mg/kg/day, orlistat 40 mg/kg 2 times/day, sibutramine 10 mg/kg 1 time/day) was 6.12 and the “Average Feed Intake 7-week” value (DIO mice, 7-week, doses as in Example 76) was 2.67. The “Food Efficiency Ratio (FER) 7 weeks” value (DIO mice, 7 weeks, Mean, Weight Gain (g/day)/Feed Intake (g/day)) was 0.054, the “Food Efficiency Ratio (FER)” value (DIO mice, FER = body weight gain (g/day)/food intake (g/day), SIB 10 mg/kg, ORI 40 mg/kg, Mutamba extract 32 (G1) 1000 mg/kg, mean) was 0.008 and the “Food Efficiency Ratio (FER)” value (DIO mice, FER = body weight gain (g/day)/food intake (g/day), SIB 10 mg/kg, ORI 40 mg/kg, Mutamba extract 33-2 G1 1000 mg/kg, mean) was 0.043. The “Average Body Weight Gain” value [4] was 0.021 g/day, the “Average Food Intake” value [4] was 2.724 g/day and the “Body Weight Gain” value [5] was 0.114 g/day. For the same compound, the “Food Intake” value [5] was 2.624 g/day, the “FER (Food efficiency ratio)” value (DIO mice, combination (1:1) 2000 mg/kg twice a day, FER = body weight gain/food intake) was −0.014 and the “Food Intake” value [6] was 3.564 g/day. The “Weight Gain” value [6] was -0.051 g/day, the “Hepatocellular ballooning (0-2)” value [7] was 0.40 and the “Lobular Inflammation (0-3)” value [7] was 1.60. For the same compound, the “Steatosis (0-3)” value [7] was 1.20, the “Hepatocellular ballooning (0-2)” value [8] was 0.40 and the “Lobular Inflammation (0-3)” value [8] was 1.60. The “Steatosis (0-3)” value [8] was 1.20, the “NSAH (sum)” value (sum of scores, mice fed a high fat diet, Mutamba fractions 250 mg/kg oral 2 times per day, mean) was 3.20 and the “NSAH (sum)” value (sum of scores, mice fed a high fat diet, Mutamba fractions 250 mg/kg oral 2 times per day, mean (table printed twice)) was 3.20. The “FER (Food efficiency ratio)” value (mice fed a high fat diet, FER = body weight gain (g/day)/food intake (g/day), Mutamba fractions 250 mg/kg oral 2 times per day, mean) was 0.043, the Body Weight Gain [9] was 0.114 g/day and the Food Intake [9] was 2.624 g/day. For the same compound, the “blood biochemistry parameters vs HFD group” value [10] was “statistically significant decrease in LDL-cholesterol”, the “body weight gain vs HFD group” value [10] was “statistically significant decreases in body weight gain across all weeks of the study” and the “liver pathology (NASH score) vs HFD group” value [10] was “statistically significant decreases in Steatosis, Lobular inflammation, Hepatocellular ballooning and NASH score”. The “total body weight vs HFD group” value [10] was “statistically significant decreases in total body weight from week 1, 2, 3 and 7”, the “weight gain per day, food intake per day, food efficiency ratio (FER) vs HFD group” value [10] was “average body weight gain per day and food efficiency ratio (FER) endpoints were significantly lowered” and the “body weight gain vs HFD group” value [11] was “did not”. The “weight gain per day, food intake per day, food efficiency ratio (FER) vs HFD group” value [11] was “statistically significant reduction of average food intake after 7 weeks of treatment”, the “weight gain per day, food intake per day, food efficiency ratio (FER) vs HFD group” value (sibutramine 10 mg/kg, 1 time/day, listed as sibutramine) was “not statistically significant” and the “Total Body Weight” value (week 0, SIB 10 mg/kg) was 39.70. The “Body Weight” value (week 0, mice fed a high fat diet, Mutamba fractions 250 mg/kg oral 2 times per day, mean) was 38.41, the “Body Weight Gain” value (week 1, DIO mice, SIB 10 mg/kg, ORI 40 mg/kg, Mutamba extract 32 (G1) 1000 mg/kg/day oral, mean) was −5.46 and the “Body Weight Gain” value (week 1, DIO mice, SIB 10 mg/kg, ORI 40 mg/kg, Mutamba extract 33-2 G1 1000 mg/kg, mean) was −2.72. For the same compound, the “Weight Gain” value (week 1, DIO mice, combination (1:1) 2000 mg/kg twice a day, group mean) was −3.63, the “Weight Gain” value (week 1, DIO mice, combination (10:1) 1100 mg/kg twice a day, group mean) was −3.63 and the “Total Body Weight” value (week 1, SIB 10 mg/kg) was 34.24. The “Body Weight Gain” value [12] was −2.72, the “Body Weight” value [12] was 35.69 and the “Body Weight Gain” value (week 2, DIO mice, SIB 10 mg/kg, ORI 40 mg/kg, Mutamba extract 32 (G1) 1000 mg/kg/day oral, mean) was −4.84. The “Body Weight Gain” value (week 2, DIO mice, SIB 10 mg/kg, ORI 40 mg/kg, Mutamba extract 33-2 G1 1000 mg/kg, mean) was −2.39, the “Weight Gain” value (week 2, DIO mice, combination (1:1) 2000 mg/kg twice a day, group mean) was −5.37 and the “Weight Gain” value (week 2, DIO mice, combination (10:1) 1100 mg/kg twice a day, group mean) was −5.37. For the same compound, the “Total Body Weight” value (week 2, SIB 10 mg/kg) was 33.96, the “Body Weight Gain” value [13] was −2.39 and the “Body Weight” value [13] was 36.03. For the same compound, the “Body Weight Gain” value (week 3, DIO mice, SIB 10 mg/kg, ORI 40 mg/kg, Mutamba extract 32 (G1) 1000 mg/kg/day oral, mean) was −2.75, the “Body Weight Gain” value (week 3, DIO mice, SIB 10 mg/kg, ORI 40 mg/kg, Mutamba extract 33-2 G1 1000 mg/kg, mean) was −0.39 and the “Weight Gain” value (week 3, DIO mice, combination (1:1) 2000 mg/kg twice a day, group mean) was −4.69. For the same compound, the “Weight Gain” value (week 3, DIO mice, combination (10:1) 1100 mg/kg twice a day, group mean) was −4.69, the “Total Body Weight” value (week 3, SIB 10 mg/kg) was 36.05 and the “Body Weight Gain” value [14] was −0.39. The “Body Weight” value [14] was 38.02, the “Body Weight Gain” value (week 4, DIO mice, SIB 10 mg/kg, ORI 40 mg/kg, Mutamba extract 32 (G1) 1000 mg/kg/day oral, mean) was −2.17 and the “Body Weight Gain” value (week 4, DIO mice, SIB 10 mg/kg, ORI 40 mg/kg, Mutamba extract 33-2 G1 1000 mg/kg, mean) was 1.47. The “Weight Gain” value (week 4, DIO mice, combination (1:1) 2000 mg/kg twice a day, group mean) was −4.82, the “Weight Gain” value (week 4, DIO mice, combination (10:1) 1100 mg/kg twice a day, group mean) was −4.82 and the “Total Body Weight” value (week 4, SIB 10 mg/kg) was 36.64. The “Body Weight Gain” value [15] was 1.47, the “Body Weight” value [15] was 39.89 and the “Body Weight Gain” value (week 5, DIO mice, SIB 10 mg/kg, ORI 40 mg/kg, Mutamba extract 32 (G1) 1000 mg/kg/day oral, mean) was −1.38. For the same compound, the “Body Weight Gain” value (week 5, DIO mice, SIB 10 mg/kg, ORI 40 mg/kg, Mutamba extract 33-2 G1 1000 mg/kg, mean) was 2.54, the “Weight Gain” value (week 5, DIO mice, combination (1:1) 2000 mg/kg twice a day, group mean) was −4.25 and the “Weight Gain” value (week 5, DIO mice, combination (10:1) 1100 mg/kg twice a day, group mean) was −4.25. The “Total Body Weight” value (week 5, SIB 10 mg/kg) was 37.42, the “Body Weight Gain” value [16] was 2.54 and the “Body Weight” value [16] was 40.95. For the same compound, the “Body Weight Gain” value (week 6, DIO mice, SIB 10 mg/kg, ORI 40 mg/kg, Mutamba extract 32 (G1) 1000 mg/kg/day oral, mean) was −0.27, the “Body Weight Gain” value (week 6, DIO mice, SIB 10 mg/kg, ORI 40 mg/kg, Mutamba extract 33-2 G1 1000 mg/kg, mean) was 3.99 and the “Weight Gain” value (week 6, DIO mice, combination (1:1) 2000 mg/kg twice a day, group mean) was −3.90. The “Weight Gain” value (week 6, DIO mice, combination (10:1) 1100 mg/kg twice a day, group mean) was −3.90, the “Total Body Weight” value (week 6, SIB 10 mg/kg) was 38.54 and the “Body Weight Gain” value [17] was 3.99. The “Body Weight” value [17] was 42.40, the “Body Weight Gain” value (week 7, DIO mice, SIB 10 mg/kg, ORI 40 mg/kg, Mutamba extract 32 (G1) 1000 mg/kg/day oral, mean) was −0.06 and the “Body Weight Gain” value (week 7, DIO mice, SIB 10 mg/kg, ORI 40 mg/kg, Mutamba extract 33-2 G1 1000 mg/kg, mean) was 5.15. The “Weight Gain” value (week 7, DIO mice, combination (1:1) 2000 mg/kg twice a day, group mean) was −2.27, the “Weight Gain” value (week 7, DIO mice, combination (10:1) 1100 mg/kg twice a day, group mean) was −2.27 and the “Total Body Weight” value (week 7, SIB 10 mg/kg) was 38.74. The “Body Weight Gain” value [18] was 5.15, the “Body Weight” value [18] was 43.57 and the “Body Weight Gain” value (week 8, DIO mice, SIB 10 mg/kg, ORI 40 mg/kg, Mutamba extract 32 (G1) 1000 mg/kg/day oral, mean) was 1.15. For the same compound, the “Body Weight Gain” value (week 8, DIO mice, SIB 10 mg/kg, ORI 40 mg/kg, Mutamba extract 33-2 G1 1000 mg/kg, mean) was 6.27, the “Total Body Weight” value (week 8, SIB 10 mg/kg) was 39.95 and the “Body Weight Gain” value [19] was 6.27. The “Body Weight” value [19] was 44.69.
